Patent publication US20250263408A1 (Uniquest Pty Ltd, priority 2022, published 2025)

Experiments:
Syk = molecular target: T1, Syk (Homo sapiens, UniProt P43405); assay: Syk Biochemical Assay (ADP-Glo luminescence); conditions: ATP 40 μM final, 60 minutes, read-out: SYK Biochem IC50
T1 construct: purchased Promega

Ba/F3-Syk cells = molecular target: T2, Ba/F3-Syk cells (Homo sapiens, UniProt P43405); assay: Ba/F3 Proliferation Assay, Ba/F3-Syk cells (Resazurin); assay type: cell-based; conditions: 48-hour incubation
T2 construct: fused on or other part: Possible but unprinted fusion partner: TEL (ETV6), the usual partner for Ba/F3 lines transformed by Syk; Nothing on a partner is printed

MDR1 (Pgp) = assay: Permeability Assay, bi-directional flux in MDCKII-MDR1 cells; assay type: in vitro ADME, canine; conditions: dog; for Papp at 2 h, 10 PM: MDCK-MDR1, 2 hours at 37° C., concentration printed as 10 PM; for efflux ratio at 2 h, 10 PM: MDCK-MDR1, ratio >2 indicates the compound is effluxed, read-out: efflux ratio (PappB-A/PappA-B)
Experimental: The assay was performed using Charles River/Agilux default assay conditions and default acetonitrile extraction and bioanalytical conditions. The assay was performed using MDCKII-MDR1 (Pgp) cells (canine MDCK stably transfected with MDR1). Bi-directional (A-B and B-A) flux measurements were carried out in triplicate aliquots from duplicate wells. The compounds were incubated for 2 hours at 37° C. at a concentration of 10 PM. The efflux ratio is the ratio of PappB-A/PappA-B, and a ratio >2 indicates the compound is effluxed.

[1] = Brain Penetration Assays: Mouse Pharmacokinetics (plasma and brain levels after oral dose); assay type: in vivo; conditions: male, CD-1, mouse, mice, 1 hour post oral dose of 10 mg/kg; for concentration at 1 h: brain (free, unbound); for Kp at 1 h: brain / plasma (unbound), read-out: Kpu,u (ratio of unbound brain levels to unbound plasma levels)
Experimental: Male CD-1 mice (6-8 weeks of age, 3 animals per timepoint) were dosed via oral gavage (10 mL/kg) with compound (10 mg/kg, 0.5% methylcellulose in water). Blood samples were taken either non-terminal via saphenous vein or terminal via cardiac puncture and stored in 1.5 mL Eppendorf tubes containing 0.010 mL of 10% K2EDTA, mixed gently and placed in ice before centrifugation. Blood was centrifuged at 10,000 r.p.m. for 2 minutes, plasma harvested and stored at −80° C. Following blood collection at the terminal time points, animals were sacrificed with C02 and brains quickly removed, rinsed with cold saline (0.9% NaCl), surface vasculature ruptured, blotted with dry gauze or tissue and weighed. The whole brain was homogenized in 1.0 mL ice cold phosphate-buffered saline, pH 7.4 and the homogenates stored at −80° C. Compound concentrations were quantified in plasma and brain tissue by LC-MS/MS using a partially validated bioanalytical method.
(§1) The Rapid Equilibrium Dialysis (RED) method was employed with plasma (200 μL, BioIVT, USA) in phosphate buffered saline (PBS, 350 μL) incubated with compound (1 μM) at 37° C. for 5 hours shaking at 450 r.p.m. Acetonitrile (3 volumes) was added and the sample centrifuged for 5 minutes and 1050 r.p.m. then for 15 minutes at 4000 r.p.m. Compound concentrations were quantified via LC-MS/MS from supernatant and free drug was calculated.
as §1, with “RED” for “Rapid Equilibrium Dialysis (RED)”, “mouse brain homogenate (10% w/v prepared in-house))” for “plasma (200 μL, BioIVT, USA) in phosphate buffered saline (PBS, 350 μL)”, “14” for “15”

[2] = tested on: Ba/F3-WT (wild type) cells; assay: Ba/F3 Proliferation Assay, Ba/F3-WT (wild type) cells with mIL-3 (Resazurin); assay type: cell-based; conditions: Mus musculus, BaF3, 48 h, Ba/F3-WT cells +mIL-3, 48-hour incubation

`Cn1ccc(-c2cc3ncccc3c(OC[C@@H]3CNCCO3)n2)c1` [Compound 2.20, 7-(1-methyl-1H-pyrrol-3-yl)-5-{[(2S)-morpholin-2-yl]methoxy}-1,6-naphthyridine] gave an IC50 (Syk) of 37.8 nM, an EC50 (Ba/F3-Syk cells) of 87.5 nM and a Papp at 2 h, 10 PM (MDR1 (Pgp)) greater than 20 ×10⁻⁶ cm/s. The efflux ratio at 2 h, 10 PM (MDR1 (Pgp)) was no more than 1, the concentration at 1 h [1] was greater than 25 nM and the Kp at 1 h [1] was 0.2 to 0.3. The EC50 [2] was 4170 nM.

`CC1(C)CNC[C@@H](COc2nc(-c3cnn(C(C)(C)C)c3)cc3ncccc23)O1` [Compound 2.42, 7-(1-tert-butyl-1-pyrazol-4-yl)-5-{[(2S)-6,6-dimethylmorpholin-2-yl]methoxy}-1,6-naphthyridine] showed an IC50 (Syk) of 12.2 nM, an EC50 (Ba/F3-Syk cells) of 12.5 nM and a Papp at 2 h, 10 PM (MDR1 (Pgp)) greater than 20 ×10⁻⁶ cm/s. It also gave an efflux ratio at 2 h, 10 PM (MDR1 (Pgp)) of no more than 1, a concentration at 1 h [1] greater than 25 nM and a Kp at 1 h [1] of 0.1 to 0.2. For the same compound, the EC50 [2] was 2340 nM.

`Cn1cc(-c2cc3ncccc3c(OC[C@@H]3CNCC4(CCC4)O3)n2)cn1` [Compound 2.55, 7-(1-methyl-1H-pyrazol-4-yl)-5-{[(6S)-5-oxa-8-azaspiro[3.5]nonan-6-yl]methoxy}-1,6-naphthyridine] gave an IC50 (Syk) of 29.7 nM, an EC50 (Ba/F3-Syk cells) of 43.8 nM and a concentration at 1 h [1] greater than 25 nM. It also gave a Kp at 1 h [1] of 0.05 to 0.1 and an EC50 [2] of 3270 nM.

For `C[C@@H](Oc1nc(-c2cnn(C(C)(C)C)c2)cc2ncccc12)[C@@H]1CNCCO1` [Compound 2.67, 7-(1-tert-butyl-1H-pyrazol-4-yl)-5-[(1R)-1-[(2S)-morpholin-2-yl]ethoxy]-1,6-naphthyridine], the IC50 (Syk) was 29.5 nM, the EC50 (Ba/F3-Syk cells) was 18.6 nM and the concentration at 1 h [1] was no more than 25 nM. The Kp at 1 h [1] was 0.1 to 0.2 and the EC50 [2] was 1860 nM.

`Cn1ccc(-c2cc(OC[C@@H]3CNCCO3)c3cccnc3c2)c1` [Compound 3.1, 7-(1-methyl-1H-pyrrol-3-yl)-5{-[(2S)-morpholin-2-yl]methoxy}quinoline] gave an IC50 (Syk) of 48.1 nM, an EC50 (Ba/F3-Syk cells) of 78.2 nM and a Papp at 2 h, 10 PM (MDR1 (Pgp)) of 15 to 20 ×10⁻⁶ cm/s. For the same compound, the efflux ratio at 2 h, 10 PM (MDR1 (Pgp)) was no more than 1, the Kp at 1 h [1] was 0.1 to 0.2 and the EC50 [2] was 2660 nM.

`CC(C)n1cc(-c2cc(OC[C@@H]3CNCC(C)(C)O3)c3cccnc3c2)cn1` [Compound 3.6, 5-{[(2S)-6,6-dimethylmorpholin-2-yl]methoxy}-7-[1-(propan-2-yl)-1H-pyrazol-4-yl]quinoline] showed an IC50 (Syk) of 10.6 nM, an EC50 (Ba/F3-Syk cells) of 23.3 nM and a Papp at 2 h, 10 PM (MDR1 (Pgp)) of 15 to 20 ×10⁻⁶ cm/s. For the same compound, the efflux ratio at 2 h, 10 PM (MDR1 (Pgp)) was 1 to 2, the concentration at 1 h [1] was no more than 25 nM and the Kp at 1 h [1] was 0.05 to 0.1. The EC50 [2] was 2120 nM.

For `Cn1ccc(-c2cc(OC[C@@H]3CNCC(C)(C)O3)c3cccnc3c2)c1` [Compound 3.10, 5-{[(2S)-6,6-dimethylmorpholin-2-yl]methoxy}-7-(1-methyl-1H-pyrrol-3-yl)quinoline], the IC50 (Syk) was 35 nM, the EC50 (Ba/F3-Syk cells) was 53.2 nM and the concentration at 1 h [1] was greater than 25 nM. For the same compound, the Kp at 1 h [1] was 0.2 to 0.3 and the EC50 [2] was 4610 nM.

In the case of `CC(C)n1ccc(-c2cc3ncccc3c(OC[C@@H]3CNCCO3)n2)c1` [Compound 6.2, 5-{[(2S)-morpholin-2-yl]methoxy}-7-[1-(propan-2-yl)-1H-pyrrol-3-yl]-1,6-naphthyridine], the IC50 (Syk) is reported as 16 nM, the EC50 (Ba/F3-Syk cells) is reported as 35.6 nM and the Papp at 2 h, 10 PM (MDR1 (Pgp)) is reported as greater than 20 ×10⁻⁶ cm/s. The efflux ratio at 2 h, 10 PM (MDR1 (Pgp)) was 1 to 2, the Kp at 1 h [1] was 0.1 to 0.2 and the EC50 [2] was 2550 nM.

`CC(C)n1ccc(-c2cc3ncccc3c(OC[C@@H]3CNCC(C)(C)O3)n2)c1` [Compound 6.9, 5-{[(2S)-6,6-dimethylmorpholin-2-yl]methoxy}-7-[1-(propan-2-yl)-1H-pyrrol-3-yl]-1,6-naphthyridine] showed an IC50 (Syk) of 14.1 nM, an EC50 (Ba/F3-Syk cells) of 11.4 nM and a Papp at 2 h, 10 PM (MDR1 (Pgp)) of 15 to 20 ×10⁻⁶ cm/s. For the same compound, the efflux ratio at 2 h, 10 PM (MDR1 (Pgp)) was no more than 1, the Kp at 1 h [1] was 0.1 to 0.2 and the EC50 [2] was 3300 nM.

In the case of `CCn1ccc(-c2cc3ncccc3c(OC[C@@H]3CNCC(C)(C)O3)n2)c1` [Compound 6.19, 5-{[(2S)-6,6-dimethylmorpholin-2-yl]methoxy}-7-(1-ethyl-1H-pyrrol-3-yl)-1,6-naphthyridine], the IC50 (Syk) is reported as 11.9 nM, the EC50 (Ba/F3-Syk cells) is reported as 21.4 nM and the concentration at 1 h [1] is reported as greater than 25 nM. The Kp at 1 h [1] was 0.1 to 0.2 and the EC50 [2] was 5020 nM.

Compound `CCn1ccc(-c2cc3ncccc3c(OC[C@@H]3CNCCCO3)n2)c1` [Compound 6.26, 7-(1-ethyl-1H-pyrrol-3-yl)-5-{[(2S)-1,4-oxazepan-2-yl]methoxy}-1,6-naphthyridine] has an IC50 (Syk) of 32.1 nM, an EC50 (Ba/F3-Syk cells) of 21.4 nM and a concentration at 1 h [1] of no more than 10 nM. It also gave a Kp at 1 h [1] of 0.1 to 0.2 and an EC50 [2] greater than 10000 nM.

`CC(C)n1ccc(-c2cc3ncccc3c(O[C@H](C)[C@@H]3CNCCO3)n2)c1` [Compound 6.28, 5-[(1R)-1-[(2S)-morpholin-2-yl]ethoxy]-7-[1-(propan-2-yl)-1H-pyrrol-3-yl]-1,6-naphthyridine] gave an IC50 (Syk) of 41.8 nM, an EC50 (Ba/F3-Syk cells) of 15 nM and a concentration at 1 h [1] of no more than 10 nM. It also gave a Kp at 1 h [1] of 0.2 to 0.3 and an EC50 [2] of 2680 nM.

`CC1(C)CNC[C@@H](COc2cc(-c3ccn(C4COC4)c3)cc3ncccc23)O1` [Compound 7.11, 5-{[(2S)-6,6-dimethylmorpholin-2-yl]methoxy}-7-[1-(oxetan-3-yl)-1H-pyrrol-3-yl]quinoline] showed an IC50 (Syk) of 9.7 nM, an EC50 (Ba/F3-Syk cells) of 14.4 nM and a concentration at 1 h [1] of no more than 10 nM. For the same compound, the Kp at 1 h [1] was 0.2 to 0.3 and the EC50 [2] was 1700 nM.
